Like-named read-outs stand apart in the source and are kept apart here.
How the values were obtained:
[1] = system: MDA-MB-436 (BRCA1 mutant) cell line; assay: Viability assay in BRCA1 mutant cell line MDA-MB-436; assay type: cell-based; settings: Homo sapiens, MDA-MB-436, viability, BRCA1 mutant MDA-MB-436; read-out: MDA-MB-436 rel IC50
From the text: (§1) Table 1 also indicates IC50 values in a viability assay for a non-isogenic pair of BRCA1 mutant (column 5—MDA-MB-436) and BRCA1 WT (column 6—HCC1954) cell lines. These values indicate the effect of treatment with compound on cell survival.

USP1-UAF1 = USP1-UAF1 (Homo sapiens, UniProt O94782); assay: Ubiquitin Rhodamine assay for USP1-UAF1 activity; assay type: biochemical
Procedure: Certain compounds of the disclosure were assessed for USP1-UAF1 activity in a Ubiquitin Rhodamine assay as described in Example 135.

[2] = system: HCC1954 (BRCA1 WT) cell line; assay: Viability assay in BRCA1 WT cell line HCC1954; assay type: cell-based; settings: read-out: HCC 1954 IC50 rel IC50
From the text: as §1

Chain of USP1-UAF1 (O94782 whole entry): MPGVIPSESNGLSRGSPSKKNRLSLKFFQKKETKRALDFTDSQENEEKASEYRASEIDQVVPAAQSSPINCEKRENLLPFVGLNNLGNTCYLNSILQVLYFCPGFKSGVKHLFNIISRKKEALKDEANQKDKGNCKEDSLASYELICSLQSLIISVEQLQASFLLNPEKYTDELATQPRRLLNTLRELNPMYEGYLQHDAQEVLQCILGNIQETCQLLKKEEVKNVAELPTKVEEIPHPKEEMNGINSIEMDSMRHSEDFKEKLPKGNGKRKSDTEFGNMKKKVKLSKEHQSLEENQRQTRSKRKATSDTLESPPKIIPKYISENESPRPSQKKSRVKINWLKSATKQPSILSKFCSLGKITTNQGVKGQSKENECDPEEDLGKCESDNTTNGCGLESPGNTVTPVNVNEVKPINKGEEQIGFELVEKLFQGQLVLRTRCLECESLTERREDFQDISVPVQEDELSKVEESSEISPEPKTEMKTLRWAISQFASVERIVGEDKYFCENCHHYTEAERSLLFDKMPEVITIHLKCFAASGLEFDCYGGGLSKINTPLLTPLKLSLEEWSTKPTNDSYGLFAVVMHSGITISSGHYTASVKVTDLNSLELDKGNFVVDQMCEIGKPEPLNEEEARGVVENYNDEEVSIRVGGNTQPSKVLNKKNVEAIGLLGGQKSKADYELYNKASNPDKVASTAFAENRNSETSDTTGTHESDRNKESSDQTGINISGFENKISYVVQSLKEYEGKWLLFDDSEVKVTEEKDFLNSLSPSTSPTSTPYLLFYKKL
Chain of USP1-UAF1 (Q8TAF3 whole entry partner): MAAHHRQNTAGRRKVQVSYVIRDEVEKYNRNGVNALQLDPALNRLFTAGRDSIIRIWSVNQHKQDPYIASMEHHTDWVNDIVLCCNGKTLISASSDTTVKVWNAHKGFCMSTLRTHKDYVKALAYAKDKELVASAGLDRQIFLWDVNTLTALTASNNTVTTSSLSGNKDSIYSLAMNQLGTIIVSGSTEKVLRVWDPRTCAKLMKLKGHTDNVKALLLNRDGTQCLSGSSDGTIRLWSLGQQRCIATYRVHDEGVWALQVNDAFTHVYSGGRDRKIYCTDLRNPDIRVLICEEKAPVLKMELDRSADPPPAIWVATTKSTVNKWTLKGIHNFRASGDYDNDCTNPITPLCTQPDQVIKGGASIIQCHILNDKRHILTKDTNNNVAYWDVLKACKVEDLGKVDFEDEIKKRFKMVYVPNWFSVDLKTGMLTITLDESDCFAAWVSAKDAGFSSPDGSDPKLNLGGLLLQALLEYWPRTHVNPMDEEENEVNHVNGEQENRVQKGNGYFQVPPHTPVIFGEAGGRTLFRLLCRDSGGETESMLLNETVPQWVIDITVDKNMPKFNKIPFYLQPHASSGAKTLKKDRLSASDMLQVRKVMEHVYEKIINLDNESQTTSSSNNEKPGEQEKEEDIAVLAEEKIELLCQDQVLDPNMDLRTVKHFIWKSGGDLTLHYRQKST

Cn1cc(C(F)(F)F)nc1-c1ccc(C(C)(O)c2c[nH]c3cnc(-c4cccnc4OCC(F)(F)F)nc23)cc1 (single isomer, unassigned) [Compound 22]
IC50 [1]: 0.1 to 0.25 µM | IC50 (USP1-UAF1): 0.1 to 10 µM | IC50 ([2]; Homo sapiens): 0.25 to 10 µM

CO[C@@H](c1ccc(-c2nc(C(F)(F)F)cn2C)cc1)c1c[nH]c2cnc(-c3c(OC(F)F)ncnc3C3CC3)nc12 (single isomer, unassigned) [Compound 127]
IC50 (USP1-UAF1): 0.1 to 10 µM

CO[C@H](c1ccc(-c2nc(C(F)(F)F)cn2C)cc1)c1c[nH]c2cnc(-c3c(OC(F)F)ncnc3C3CC3)nc12 (single isomer, unassigned) [Compound 149]
IC50 (USP1-UAF1): < 0.03 µM

COc1ncnc(C2CC2)c1-c1ncc2[nH]cc(C(C)c3ccc(-c4nc(C(F)(F)F)cn4C)cc3)c2n1 (single isomer, unassigned) [Compound 192]
IC50 [2]: 0.25 to 10 µM

COc1ncnc(C2CC2)c1-c1ncc2[nH]cc([C@H](c3ccc(-c4nc(C(F)(F)F)cn4C)cc3)C(C)C)c2n1 (single isomer, unassigned) [Compound 208]
IC50 [1]: 0.25 to 10 µM | IC50 (USP1-UAF1): 0.1 to 10 µM | IC50 ([2]; Homo sapiens): 0.25 to 10 µM

CN(C)Cc1ccccc1-c1ncc2[nH]cc(C(O)c3ccc(-c4nc(C(F)(F)F)cn4C)cc3)c2n1 (centres unmarked) [Compound 3]
IC50 [1]: ≥ 10 µM | IC50 (USP1-UAF1): ≥ 10 µM | IC50 ([2]; Homo sapiens): ≥ 10 µM

CC(C)c1ccccc1-c1ncc2[nH]cc(CN3CCC(c4nc(C(F)(F)F)cn4C)CC3)c2n1 [Compound 6, 2-(2-isopropylphenyl)-7-[[4-[1-methyl-4-(trifluoromethyl)imidazol-2-yl]-1-piperidyl]methyl]-5H-pyrrolo[3,2-d]pyrimidine]
IC50 [1]: 0.25 to 10 µM | IC50 (USP1-UAF1): 0.1 to 10 µM | IC50 ([2]; Homo sapiens): ≥ 10 µM

COc1ncnc(C2CC2)c1-c1ncc2[nH]cc(C(O)c3ccc(-c4nc(C(F)(F)F)cn4C4CN(C)C4)cc3)c2n1 (centres unmarked) [Compound 7, (2-(4-cyclopropyl-6-methoxypyrimidin-5-yl)-5H-pyrrolo[3,2-d]pyrimidin-7-yl)(4-(1-(1-methylazetidin-3-yl)-4-(trifluoromethyl)-1H-imidazol-2-yl)phenyl)methanol]
IC50 [1]: ≥ 10 µM | IC50 (USP1-UAF1): ≥ 10 µM | IC50 ([2]; Homo sapiens): ≥ 10 µM

CN(C)Cc1ccccc1-c1ncc2[nH]cc(Cc3ccc(-c4nc(C(F)(F)F)cn4C)cc3)c2n1 [Compound 9]
IC50 [1]: ≥ 10 µM | IC50 (USP1-UAF1): ≥ 10 µM | IC50 ([2]; Homo sapiens): ≥ 10 µM

CN(c1ccc(-c2nc(C(F)(F)F)cn2C)cc1)c1c[nH]c2cnc(-c3ccccc3C3CC3)nc12 [Compound 13, 2-(2-cyclopropylphenyl)-N-methyl-N-[4-[1-methyl-4-(trifluoromethyl)imidazol-2-yl]phenyl]-5H-pyrrolo[3,2-d]pyrimidin-7-amine]
IC50 [1]: 0.25 to 10 µM | IC50 (USP1-UAF1): 0.1 to 10 µM | IC50 ([2]; Homo sapiens): ≥ 10 µM

COc1ncnc(C2CC2)c1-c1ncc2[nH]nc(Cc3ccc(-c4nc(C(F)(F)F)cn4C(C)C)cc3)c2n1 [Compound 16, 5-(4-cyclopropyl-6-methoxy-pyrimidin-5-yl)-3-[[4-[1-isopropyl-4-(trifluoromethyl)imidazol-2-yl]phenyl]methyl]-1H-pyrazolo[4,3-d]pyrimidine]
IC50 [1]: < 0.1 µM | IC50 ([2]; Homo sapiens): ≥ 10 µM

COc1ncnc(C2CC2)c1-c1ncc2[nH]cc(C(O)c3ccc(-c4nc(C(F)(F)F)cn4C4CC4)cc3)c2n1 (centres unmarked) [Compound 19, [2-(4-cyclopropyl-6-methoxy-pyrimidin-5-yl)-5H-pyrrolo[3,2-d]pyrimidin-7-yl]-[4-[1-cyclopropyl-4-(trifluoromethyl)imidazol-2-yl]phenyl]methanol]
IC50 (USP1-UAF1): 0.1 to 10 µM

Cn1cc(C(F)(F)F)nc1-c1ccc(C(O)c2c[nH]c3cnc(-c4cccnc4C4CC4)cc23)cc1 (centres unmarked) [Compound 30, [5-(2-cyclopropylpyridin-3-yl)-1H-pyrrolo[2,3-c]pyridin-3-yl]([4-[1-methyl-4-(trifluoromethyl)imidazol-2-yl]phenyl])methanol]
IC50 [1]: ≥ 10 µM | IC50 (USP1-UAF1): 0.1 to 10 µM | IC50 ([2]; Homo sapiens): ≥ 10 µM

Cn1cc(C(F)(F)F)nc1-c1ccc(Cc2c[nH]c3cnc(-c4cccnc4N4CCC45CCOC5)nc23)cc1 (centres unmarked) [Compound 32]
IC50 [1]: 0.25 to 10 µM | IC50 (USP1-UAF1): 0.1 to 10 µM | IC50 ([2]; Homo sapiens): 0.25 to 10 µM

CC(C)c1ccccc1-c1ncc2[nH]cc(CN3CCN(c4nc(C(F)(F)F)cn4C)CC3)c2n1 [Compound 35, 2-(2-isopropylphenyl)-7-[[4-[1-methyl-4-(trifluoromethyl)imidazol-2-yl]piperazin-1-yl]methyl]-5H-pyrrolo[3,2-d]pyrimidine]
IC50 [1]: 0.25 to 10 µM | IC50 (USP1-UAF1): 0.1 to 10 µM | IC50 ([2]; Homo sapiens): 0.25 to 10 µM

Cn1cc(C(F)(F)F)nc1-c1ccc([S+]([O-])c2c[nH]c3cnc(-c4ccccc4C(F)(F)F)nc23)cc1 (centres unmarked) [Compound 36, 7-[4-[1-methyl-4-(trifluoromethyl)imidazol-2-yl]phenyl]sulfinyl-2-[2-(trifluoromethyl)phenyl]-5H-pyrrolo[3,2-d]pyrimidine]
IC50 (USP1-UAF1): 0.1 to 10 µM

COc1ncnc(C2CC2)c1-c1ncc2[nH]cc(C(O)c3ccc(-c4nc(C#N)cn4C)cc3)c2n1 (centres unmarked) [Compound 37, 2-[4-[[2-(4-cyclopropyl-6-methoxy-pyrimidin-5-yl)-5H-pyrrolo[3,2-d]pyrimidin-7-yl]-hydroxy-methyl]phenyl]-1-methyl-imidazole-4-carbonitrile]
IC50 (USP1-UAF1): ≥ 10 µM

CN1CC(n2cc(C(F)(F)F)nc2-c2ccc(C(O)c3c[nH]c4cnc(-c5cccnc5OC(F)F)nc34)cc2)C1 (centres unmarked) [Compound 38, [2-[2-(difluoromethoxy)-3-pyridyl]-5H-pyrrolo[3,2-d]pyrimidin-7-yl]-[4-[1-(1-methylazetidin-3-yl)-4-(trifluoromethyl)imidazol-2-yl]phenyl]methanol]
IC50 [1]: ≥ 10 µM | IC50 (USP1-UAF1): ≥ 10 µM | IC50 ([2]; Homo sapiens): ≥ 10 µM

COc1ncnc(C2CC2)c1-c1ncc2c(n1)c(Cc1ccc(-c3nc(C(F)(F)F)cn3C)cc1)cn2C [Compound 39, 2-(4-cyclopropyl-6-methoxy-pyrimidin-5-yl)-5-methyl-7-[[4-[1-methyl-4-(trifluoromethyl)imidazol-2-yl]phenyl]methyl]pyrrolo[3,2-d]pyrimidine]
IC50 [1]: < 0.1 µM | IC50 (USP1-UAF1): < 0.03 µM | IC50 ([2]; Homo sapiens): ≥ 10 µM

Cn1cc(C(F)(F)F)nc1-c1ccc(C(O)c2c[nH]c3cnc(-c4cccnc4C4CC4)nc23)cc1 (centres unmarked) [Compound 40]
IC50 [1]: 0.25 to 10 µM | IC50 (USP1-UAF1): 0.1 to 10 µM | IC50 ([2]; Homo sapiens): ≥ 10 µM

CN(Cc1ccccc1-c1ncc2[nH]cc(C(O)c3ccc(-c4nc(C(F)(F)F)cn4C)cc3)c2n1)CC(F)(F)F (centres unmarked) [Compound 42]
IC50 [1]: 0.25 to 10 µM | IC50 (USP1-UAF1): 0.1 to 10 µM | IC50 ([2]; Homo sapiens): ≥ 10 µM

Cn1cc(C(F)(F)F)nc1-c1ccc(Nc2c[nH]c3cnc(-c4cccnc4C4CC4)nc23)cc1 [Compound 43, 2-(2-cyclopropyl-3-pyridyl)-N-[4-[1-methyl-4-(trifluoromethyl)imidazol-2-yl]phenyl]-5H-pyrrolo[3,2-d]pyrimidin-7-amine]
IC50 [1]: ≥ 10 µM | IC50 (USP1-UAF1): 0.1 to 10 µM | IC50 ([2]; Homo sapiens): ≥ 10 µM

Cn1cc(C(F)(F)F)nc1-c1ccc(Cc2c[nH]c3cnc(-c4cccnc4NC4CC4)nc23)cc1 [Compound 44]
IC50 [1]: 0.25 to 10 µM | IC50 (USP1-UAF1): 0.1 to 10 µM | IC50 ([2]; Homo sapiens): 0.25 to 10 µM

Cn1cc(C(F)(F)F)nc1-c1ccc(S(=O)(=O)c2c[nH]c3cnc(-c4ccccc4C(F)(F)F)nc23)cc1 [Compound 46, 7-[4-[1-methyl-4-(trifluoromethyl)imidazol-2-yl]phenyl]sulfonyl-2-[2-(trifluoromethyl)phenyl]-5H-pyrrolo[3,2-d]pyrimidine]
IC50 (USP1-UAF1): 0.1 to 10 µM

COc1ncnc(C2CC2)c1-c1ncc2[nH]cc(C(O)c3ccc(-c4nc(C(F)(F)F)cn4C)cc3)c2n1 (centres unmarked) [Compound 49, [2-(4-cyclopropyl-6-methoxy-pyrimidin-5-yl)-5H-pyrrolo[3,2-d]pyrimidin-7-yl]-[4-[1-methyl-4-(trifluoromethyl)imidazol-2-yl]phenyl]methanol]
IC50 [1]: 0.25 to 10 µM | IC50 (USP1-UAF1): 0.1 to 10 µM | IC50 ([2]; Homo sapiens): ≥ 10 µM

CC(C)Nc1ncccc1-c1ncc2[nH]cc(Cc3ccc(-c4nc(C(F)(F)F)cn4C)cc3)c2n1 [Compound 50, N-isopropyl-3-[7-[[4-[1-methyl-4-(trifluoromethyl)imidazol-2-yl]phenyl]methyl]-5H-pyrrolo[3,2-d]pyrimidin-2-yl]pyridin-2-amine]
IC50 [1]: 0.25 to 10 µM | IC50 (USP1-UAF1): 0.1 to 10 µM | IC50 ([2]; Homo sapiens): 0.25 to 10 µM

Cn1cc(C(F)(F)F)nc1-c1ccc(Cc2c[nH]c3cnc(-c4cccnc4N4CC(F)C4)nc23)cc1 [Compound 68]
IC50 (USP1-UAF1): 0.1 to 10 µM

CCn1c(C(F)(F)F)cnc1-c1ccc(Cc2c[nH]c3cnc(-c4c(OC)ncnc4C4CC4)nc23)cc1 [Compound 70]
IC50 (USP1-UAF1): 0.1 to 10 µM

COc1ncnc(C(C)C)c1-c1ncc2[nH]nc(Cc3ccc(-c4nc(C(F)(F)F)cn4C)cc3)c2n1 [Compound 112]
IC50 (USP1-UAF1): < 0.03 µM

Cn1cc(C(F)(F)F)nc1-c1ccc(Cc2c[nH]c3cnc(-c4ccccc4C(C)(C)O)nc23)cc1 [Compound 157, 2-(2-(7-(4-(1-methyl-4-(trifluoromethyl)-1H-imidazol-2-yl)benzyl)-5H-pyrrolo[3,2-d]pyrimidin-2-yl)phenyl)propan-2-ol]
IC50 (USP1-UAF1): < 0.03 µM

COc1ncnc(C(C)(C)C)c1-c1ncc2[nH]nc(Cc3ccc(-c4nc(C(F)(F)F)cn4C)cc3)c2n1 [Compound 158]
IC50 (USP1-UAF1): < 0.03 µM

Cn1cc(C(F)(F)F)nc1-c1ccc(Cc2n[nH]c3cnc(-c4c(OCF)ncnc4C4CC4)nc23)cc1 [Compound 169]
IC50 (USP1-UAF1): < 0.03 µM

COc1ncnc(C2CC2)c1-c1ncc2c(n1)c(Cc1ccc(-c3nc(C(F)(F)F)cn3C)cc1)cn2C1CC1 [Compound 170, 5-cyclopropyl-2-(4-cyclopropyl-6-methoxy-pyrimidin-5-yl)-7-[[4-[1-methyl-4-(trifluoromethyl)imidazol-2-yl]phenyl]methyl]pyrrolo[3,2-d]pyrimidine]
IC50 (USP1-UAF1): < 0.03 µM

COc1ncnc(C2CC2)c1-c1nc(CN)c2[nH]cc(Cc3ccc(-c4nc(C(F)(F)F)cn4C)cc3)c2n1 [Compound 201]
IC50 (USP1-UAF1): 0.1 to 10 µM

— US20240182481A1 (Tango Therapeutics, Inc., priority 2021, published 2024)
